According to US11247972B2, “Compositions and methods for treating toxoplasmosis, cryptosporidiosis, and other apicomplexan protozoan related diseases” (University of Washington through its Center for …, priority 2010, dated 2022):

Experiments:
[1] = molecular target: PfCDPK1 (Plasmodium falciparum (isolate 3D7), UniProt P62344); assay: biochemical; conditions: read-out: PfCDPK1 (% inhibition @ 3 uM)
[2] = molecular target: PfCDPK4 (Plasmodium falciparum (isolate 3D7), UniProt Q8IBS5); assay: biochemical; conditions: read-out: PfCDPK4 (% inhibition @ 3 uM)

Row | Compound | inhibition at 3 µM [1] | inhibition at 3 µM [2]
1 | Cn1ccc2cc(-c3nn(CC4CCNCC4)c4ncnc(N)c34)ccc21 [Compound 57, 3-(1-methyl-1H-indol-5-yl)-1-(piperidin-4-ylmethyl)-1H-pyrazolo[3,4-d]pyrimidin-4-amine] | 85% | 82%
2 | CC(C)(C)n1nc(-c2ccc(NC(=O)CCl)cc2)c2c(N)ncnc21 [Compound 58, N-(4-(4-amino-1-tert-butyl-1H-pyrazolo[3,4-d]pyrimidin-3-yl)phenyl)-2-chloroacetamide] | 97% | 50%
3 | CC(C)C(=O)Nc1ccc(-c2nn(C(C)(C)C)c3ncnc(N)c23)cc1 [Compound 59, N-(4-(4-amino-1-tert-butyl-1H-pyrazolo[3,4-d]pyrimidin-3-yl)phenyl)isobutyramide] | 98% | 79%
4 | CC(C)(C)C(=O)Nc1ccc(-c2nn(C(C)(C)C)c3ncnc(N)c23)cc1 [Compound 60, N-(4-(4-amino-1-tert-butyl-1H-pyrazolo[3,4-d]pyrimidin-3-yl)phenyl)pivalamide] | 98% | 85%
5 | CCCC(=O)Nc1ccc(-c2nn(C(C)(C)C)c3ncnc(N)c23)cc1 [Compound 61, N-(4-(4-amino-1-tert-butyl-1H-pyrazolo[3,4-d]pyrimidin-3-yl)phenyl)butyramide] | 101% | 80%
6 | CC(C)CC(=O)Nc1ccc(-c2nn(C(C)(C)C)c3ncnc(N)c23)cc1 [Compound 62, N-(4-(4-amino-1-tert-butyl-1H-pyrazolo[3,4-d]pyrimidin-3-yl)phenyl)-3-methylbutanamide] | 102% | 95%
7 | CC(C)(C)n1nc(-c2ccc(NC(=O)C3CCCC3)cc2)c2c(N)ncnc21 [Compound 63, N-(4-(4-amino-1-tert-butyl-1H-pyrazolo[3,4-d]pyrimidin-3-yl)phenyl)cyclopentanecarboxamide] | 103% | 96%
8 | CC(C)(C)n1nc(-c2ccc(NC(=O)C3CCCCC3)cc2)c2c(N)ncnc21 [Compound 64, N-(4-(4-amino-1-tert-butyl-1H-pyrazolo[3,4-d]pyrimidin-3-yl)phenyl)cyclohexanecarboxamide] | 101% | 66%
9 | CC(C)(C)n1nc(-c2ccc(NC(=O)c3ccccc3)cc2)c2c(N)ncnc21 [Compound 65, N-(4-(4-amino-1-tert-butyl-1H-pyrazolo[3,4-d]pyrimidin-3-yl)phenyl)benzamide] | 101% | 53%
10 | CC(C)(C)n1nc(-c2ccc(NC(=O)Cc3ccccc3)cc2)c2c(N)ncnc21 [Compound 66, N-(4-(4-amino-1-tert-butyl-1H-pyrazolo[3,4-d]pyrimidin-3-yl)phenyl)-2-phenylacetamide] | 100% | 77%
11 | CCC(=O)Nc1ccc(-c2nn(C(C)(C)C)c3ncnc(N)c23)cc1 [Compound 67, N-(4-(4-amino-1-tert-butyl-1H-pyrazolo[3,4-d]pyrimidin-3-yl)phenyl)propionamide] | 96% | 49%
12 | CCOc1ccc2cc(-c3nc(C(C)(C)C)n4ccnc(N)c34)ccc2c1 [Compound 69, 3-tert-butyl-1-(6-ethoxynaphthalen-2-yl)imidazo[1,5-a]pyrazin-8-amine] | 101% | 97%
13 | Cn1ccc2cc(-c3nc(C(C)(C)C)n4ccnc(N)c34)ccc21 [Compound 70, 3-tert-butyl-1-(1-methyl-1H-indol-5-yl)imidazo[1,5-a]pyrazin-8-amine] | 100% | 96%
14 | COc1ccc2cc(-c3nc(C(C)(C)C)n4ccnc(N)c34)ccc2c1 [Compound 71, 3-tert-butyl-1-(6-methoxynaphthalen-2-yl)imidazo[1,5-a]pyrazin-8-amine] | 101% | 98%
15 | CC(C)(C)c1nc(-c2cnc3ccccc3c2)c2c(N)nccn12 [Compound 72, 3-tert-butyl-1-(quinolin-3-yl)imidazo[1,5-a]pyrazin-8-amine] | 94% | 91%
16 | Nc1ncnc2c1c(-c1ccc(-c3ccccc3)c(F)c1)nn2CC1CCNCC1 [Compound 73, 3-(2-fluorobiphenyl-4-yl)-1-(piperidin-4-ylmethyl)-1H-pyrazolo[3,4-d]pyrimidin-4-amine] | 87% | 14%
17 | N#Cc1cccc(-c2ccc(-c3nn(CC4CCNCC4)c4ncnc(N)c34)cc2)c1 [Compound 74, 4′-(4-amino-1-(piperidin-4-ylmethyl)-1H-pyrazolo[3,4-d]pyrimidin-3-yl)biphenyl-3-carbonitrile] | 97% | 68%
18 | Cc1ccc(S(=O)(=O)Nc2ccc(-c3nn(-c4ccccc4)c4ncnc(N)c34)cc2)cc1 [Compound 75, N-(4-(4-amino-1-phenyl-1H-pyrazolo[3,4-d]pyrimidin-3-yl)phenyl)-4-methylbenzenesulfonamide] | 75% | 5%
19 | COC(=O)Nc1nc2ccc(C(O)c3ccccc3)cc2[nH]1 (centres unmarked) [Compound 82] | 56% | 4%
20 | Cc1cccc2[nH]c(-c3nc(C(C)(C)C)n4ccnc(N)c34)cc12 [Compound 83] | 96% | 93%
21 | CC(C)(C)c1nc(-c2ccc3ccccc3c2)c2c(N)nccn12 [Compound 84] | 101% | 99%
22 | CC(C)n1nc(-c2ccc3cc(OC(=O)c4cccc(Cl)c4)ccc3c2)c2c(N)ncnc21 [Compound 85] | 99% | 72%
23 | O=C(NCCO)Nc1nc2ccc(C(=O)c3ccccc3)cc2[nH]1 [Compound 90] | 77% | 64%
24 | O=C(NCCC1CCCNC1)Nc1nc2ccc(C(=O)c3ccccc3)cc2[nH]1 (centres unmarked) [Compound 91] | 73% | 59%
25 | Nc1nc2ccc(C(=O)c3ccccc3)cc2[nH]1 [Compound 92] | 68% | 51%
26 | CC(C)(C)OC(=O)NCCC(=O)Nc1nc2ccc(C(=O)c3ccccc3)cc2[nH]1 [Compound 93] | 64% | 49%

Row | Compound | inhibition at 3 µM [1] | inhibition at 3 µM [2]
27 | NCCC(=O)Nc1nc2ccc(C(=O)c3ccccc3)cc2[nH]1 [Compound 94] | 71% | 51%
28 | Nc1ncnc2c1c(I)nn2CC1CCNCC1 [Compound 98] | 85% | 9%
29 | Nc1ncnc2c1cnn2CC1CCNCC1 [Compound 99] | 70% | 5%
30 | Nc1ncnc2c1c(-c1ccc(-c3ccccc3)cc1)nn2CC1CCNCC1 [Compound 100] | 101% | 68%
31 | Nc1ncnc2c1c(-c1ccc(-c3nn(CC4CCNCC4)c4ncnc(N)c34)cc1)nn2CC1CCNCC1 [Compound 101] | 79% | 14%
32 | NCCCC(=O)Nc1nc2ccc(C(=O)c3ccccc3)cc2[nH]1 [Compound 103] | 75% | 58%
33 | NCCCCCC(=O)Nc1nc2ccc(C(=O)c3ccccc3)cc2[nH]1 [Compound 105] | 71% | 76%
34 | O=C(c1ccccc1)c1ccc2nc(NC(=O)[C@@H]3CCCN3)[nH]c2c1 [Compound 107] | 65% | 52%
35 | N[C@@H](Cc1ccc(O)cc1)C(=O)Nc1nc2ccc(C(=O)c3ccccc3)cc2[nH]1 [Compound 109] | 54% | 30%
36 | N[C@@H](Cc1c[nH]cn1)C(=O)Nc1nc2ccc(C(=O)c3ccccc3)cc2[nH]1 [Compound 111] | 63% | 41%
37 | O=C(CC1CCNCC1)Nc1nc2ccc(C(=O)c3ccccc3)cc2[nH]1 [Compound 113] | 65% | 61%
38 | O=C(CCCC1CCNCC1)Nc1nc2ccc(C(=O)c3ccccc3)cc2[nH]1 [Compound 115] | 71% | 84%
39 | O=C(CCC1CCNCC1)Nc1nc2ccc(C(=O)c3ccccc3)cc2[nH]1 [Compound 117] | 71% | 74%
40 | Cc1cc(-c2nn(CC3CCNCC3)c3ncnc(N)c23)ccc1-c1ccccc1 [Compound 118] | 97% | 81%
41 | Nc1ncnc2c1c(-c1ccc3cc(O)ccc3c1)nn2CC1CCNCC1 [Compound 119] | 102% | 101%
42 | Nc1ncnc2c1c(-c1ccc3oc(-c4ccccc4)nc3c1)nn2CC1CCNCC1 [Compound 120] | 101% | 90%
43 | Cn1ncc2cc(-c3nn(CC4CCNCC4)c4ncnc(N)c34)ccc21 [Compound 121] | 93% | 93%
44 | Nc1ncnc2c1c(-c1ccc3nccnc3c1)nn2CC1CCNCC1 [Compound 122] | 97% | 32%
45 | CC(C)(C)n1ncc2c(N)ncnc21 [Compound 123] | 62% | 4%
46 | CC(C)COc1ccc2cc(-c3nn(CC4CCN(C)CC4)c4ncnc(N)c34)ccc2c1 [Compound 124] | 98% | 93%
47 | Nc1ncnc2c1c(-c1ccc3ncccc3c1)nn2CC1CCNCC1 [Compound 125] | 89% | 93%
48 | O=C(NCCC1CCNCC1)Nc1nc2ccc(C(=O)c3ccccc3)cc2[nH]1 [Compound 126] | 76% | 65%
49 | O=C(NCCCCO)Nc1nc2ccc(C(=O)c3ccccc3)cc2[nH]1 [Compound 127] | 68% | 46%
50 | NCCCCNC(=O)Nc1nc2ccc(C(=O)c3ccccc3)cc2[nH]1 [Compound 128] | 79% | 64%
51 | CC(C)(C)n1nc(Br)c2c(N)ncnc21 [Compound 129] | 79% | 9%
52 | CC(C)COc1ccc2cc(-c3nn(C(C)(C)C)c4ncnc(N)c34)ccc2c1 [Compound 130] | 95% | 47%
